The text below walks through data of PMC7724630, “Improving the Stability of EGFR Inhibitor Cobalt(III) Prodrugs” (Inorganic Chemistry, 2020).

The term IC50 denotes the concentration that inhibits the measured activity by half.

The structures appear in SMILES notation. Where two headings read alike, the source gives them in different places.

One data set has as its system A431 cancer cells. Nature of the data set: MTT-based cytotoxicity assay under different O2 levels. To be noted: A431, 72 h. In kind it is cell-based, Human.
Data set [1] relates to EGFR phosphorylation at position Y1068 and ERK 1/2 in A431 cells. Nature of the data set: Western blot of EGFR signaling (pEGFR Y1068, pERK 1/2) after EGF stimulation. Type of data set: cell-based, Human. To be noted: A431 serum-starved, 2 h drug, EGF 50 ng/mL 10 min, normoxic. A general note: In western blotting, separated proteins are transferred to a membrane and probed.
Data set [2] is described as follows: Cyclic voltammetry, cathodic peak potential Co(III)/Co(II). Type of data set: physicochemical. To be noted: 10 mM phosphate buffer pH 7.40, 0.1 M KCl, scan rate 30 mV/s, 1.5 mM complex. The method, then: As the reduction process is crucial for the activation of cobalt(III)-based prodrug systems, the redox properties of the complexes were investigated to elucidate the effects of ligand methylation at different positions. Cyclic voltammetry measurements were performed in aqueous solution at pH 7.40 (10 mM phosphate buffer with 0.1 M KCl). […] Also, at a much higher scan speed of 1000 mV/s, the redox processes were still completely irreversible (Figure S5).
The compounds were dissolved in 10 mM phosphate buffer (pH 7.40), with 0.1 M KCl as the supporting electrolyte, to obtain a final concentration of 1.5 mM. Electrochemical experiments were conducted on an EG&G PARC 273A potentiostat/galvanostat with scan rates of 30 and 1000 mV/s at room temperature. Argon was bubbled through the solution before every measurement to remove oxygen. A three-electrode configuration cell was used with a glassy carbon electrode as the working electrode, which was polished before every measurement. The reference electrode was Ag/AgCl/KCl (3.5 M), and the auxiliary electrode was a platinum wire. Electrodes were conditioned regularly in 1 M H2SO4 for 5–10 cycles between voltage limits of −1.0 and 1.0 V at a scan rate of 100 mV/s. The system was calibrated with 1.5 mM K3[Fe(CN)6] for every experiment. Redox potentials measured relative to the Ag/AgCl/KCl (3.5 M) reference electrode were converted for potentials against NHE by the addition of 0.205 V. Measurements were repeated at least three times, and the mean values were calculated.

Data set [3] is described as follows: Interaction with low-molecular weight reducing agents (GSH, AA, NADH), UV-vis and fluorometric detection. Type of data set: physicochemical. To be noted: 10 equiv of GSH, pH 7.40, 25 °C, 24 h. As to the method: The interaction of AA, GSH, and NADH at pH 7.40 (phosphate buffer) was investigated exemplarily for Co(acac)2L^+ and Co(Meacac)2L^+. The reaction was followed by ultraviolet–visible (UV–vis) and fluorometric detection at 25 °C with a 10-fold excess of reducing agent. Spectrofluorometry was proven to be an effective technique for monitoring this redox reaction, because the free EGFR inhibitor ligand L is highly fluorescent, while its cobalt(III) complex has negligible emission (vide supra).[17] Accordingly, an increase in the emission intensity is expected upon reduction and concomitant release of the free ligand. […] The same tendency was observed by UV–vis detection (data not shown). […] AA and NADH were also not able to reduce the two complexes even after 24 h. […]
Proton dissociation processes of PhEn were followed by UV–vis spectrophotometry and spectrofluorometry; samples were prepared in water containing 100 and 10 μM ligand, respectively, and 0.1 M KCl at 25 ± 0.2 °C. The proton dissociation constants and the UV–vis or fluorescence emission spectra of the individual species in the various protonation states were calculated by deconvolution of the spectra recorded in the pH range of 2.0–11.5 with PSEQUAD.[40] […] Batch samples contained 30 μM cobalt(III) complex and 10 equiv of AA, GSH, or NADH in PBS buffer (pH 7.40) and were used only once to record their UV–vis and fluorescence spectra. […]

The nature of the next data set: Serum stability, HPLC-MS. To be noted: FCS, 37 °C, pH 7.4, 50 μM, 26 h. Type of data set: in vitro ADME. As to the method:
The data presented in the previous sections indicate that even in the presence of low-molecular weight reducing agents the cobalt(III) complexes are completely stable. Therefore, we wanted to investigate if this is still true in a more elaborate biological environment like blood serum. To this end, the four EGFR inhibitor complexes were dissolved in 50 mM phosphate puffer and mixed in a 1:10 ratio with fetal calf serum (FCS; buffered with 150 mM phosphate buffer to keep a stable pH of 7.4) to a final concentration of 50 μM. The samples were incubated at 37 °C and after 0, 2, 6, 24, and 26 h extracted with acetonitrile and measured by HPLC-MS. […] The intact complex could be observed at 14.2 min (blue peak, m/z 614.0). The red signal at the same retention time (Figure 7A; 14.2 min, m/z 358.1) is a mass spectrometry artifact and belongs to the free ligand generated during ionization of the complex.
For serum stability measurements, 135 μL of FCS, buffered with 150 mM phosphate (Na2HPO4/NaH2PO4) to maintain a pH value of 7.4, was mixed with 15 μL of a 500 μM stock solution of the respective complex in 50 mM phosphate buffer to reach a final concentration of 50 μM. The samples were incubated at 37 °C. At different time points, to 20 μL of serum was added 40 μL of ACN. […] The supernatant was taken up with a syringe and directly measured via HPLC-MS.

Details of data set [4]: method as in PMID 29567575. To be noted: pH 7.40; cited from earlier work.
Data set [5] concerns EGFR phosphorylation at position Y1068 and ERK 1/2 in A431 cells. Also on record: method as in PMID 25079700. To be noted: A431, normoxic; cited from earlier work.
The conditions of data set [6]: previous work; cited from earlier work.
A further data set has as its target EGFR (ErbB1) (Homo sapiens, UniProt P00533). Nature of the data set: Cell-free kinase inhibition assay (ZLYTE, Select Screen). In kind it is biochemical. To be noted: 10 μM ATP (10-fold excess of ATP), 1% DMSO.
The mark [7] stands for this setting: 0.1% O2, read-out: IC50 hypoxia with 0.1% O2.
Setting [8] is: 1% O2, read-out: IC50 hypoxia with 1% O2.
Setting [9] is: 5% O2, read-out: IC50 hypoxia with 5% O2.
Where [10] appears, read: 21% O2, read-out: IC50 normoxia.

EGFR (ErbB1), sequence (P00533 25-1210): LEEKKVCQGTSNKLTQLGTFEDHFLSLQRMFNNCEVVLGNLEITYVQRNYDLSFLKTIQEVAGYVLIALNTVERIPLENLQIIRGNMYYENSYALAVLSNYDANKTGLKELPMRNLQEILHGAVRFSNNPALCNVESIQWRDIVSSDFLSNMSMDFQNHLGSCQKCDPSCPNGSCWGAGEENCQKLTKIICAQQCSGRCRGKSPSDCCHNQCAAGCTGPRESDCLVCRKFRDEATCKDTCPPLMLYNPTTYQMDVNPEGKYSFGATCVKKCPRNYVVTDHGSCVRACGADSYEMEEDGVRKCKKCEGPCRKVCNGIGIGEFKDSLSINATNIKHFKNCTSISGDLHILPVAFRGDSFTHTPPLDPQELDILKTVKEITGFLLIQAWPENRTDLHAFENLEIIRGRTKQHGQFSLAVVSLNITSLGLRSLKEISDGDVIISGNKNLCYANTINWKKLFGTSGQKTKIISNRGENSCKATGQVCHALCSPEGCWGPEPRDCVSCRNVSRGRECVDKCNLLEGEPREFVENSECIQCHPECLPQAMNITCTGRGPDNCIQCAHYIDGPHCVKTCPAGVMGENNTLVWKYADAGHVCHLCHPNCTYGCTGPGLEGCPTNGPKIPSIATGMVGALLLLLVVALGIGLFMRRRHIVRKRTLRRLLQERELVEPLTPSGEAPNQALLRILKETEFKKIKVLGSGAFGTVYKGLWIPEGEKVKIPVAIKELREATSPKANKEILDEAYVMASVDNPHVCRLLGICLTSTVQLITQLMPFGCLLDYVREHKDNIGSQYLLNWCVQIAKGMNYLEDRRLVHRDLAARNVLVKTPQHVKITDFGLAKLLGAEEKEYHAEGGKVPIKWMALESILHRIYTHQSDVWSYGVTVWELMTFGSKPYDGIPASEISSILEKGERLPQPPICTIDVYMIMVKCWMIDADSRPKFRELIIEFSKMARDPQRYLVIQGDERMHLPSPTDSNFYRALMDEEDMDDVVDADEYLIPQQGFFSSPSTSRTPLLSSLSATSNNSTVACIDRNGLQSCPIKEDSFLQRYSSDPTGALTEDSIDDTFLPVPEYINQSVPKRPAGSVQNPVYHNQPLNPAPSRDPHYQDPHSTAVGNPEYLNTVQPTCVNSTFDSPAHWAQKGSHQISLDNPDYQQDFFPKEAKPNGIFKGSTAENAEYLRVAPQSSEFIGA

On to `CC(=O)[C-](C)C(C)=O.CC(=O)[C-](C)C(C)=O.NCCNc1ccc2ncnc(Nc3cccc(Br)c3)c2c1.[Cl-].[Co+3]` [Co(Meacac)2L^+, Bis(3-methyl-2,4-pentanedionato) N^6-(2-Aminoethyl)-N^4-(3-bromophenyl)quinazoline-4,6-diamine Cobalt(III) Chloride], for which the concentration for half-maximal inhibition (IC50) turned out to be 23.5 ± 5.1 µM with A431 cancer cells (setting [7]), 25.3 ± 3.9 µM in the data set with A431 cancer cells (setting [8]), 45.5 ± 2.7 µM in the data set with A431 cancer cells (setting [9]) and 51.9 ± 9.4 µM with A431 cancer cells (setting [10]). Also, the “EGFR-inhibitory potential (pEGFR, pERK 1/2)” value in [1] was “distinctly weakened EGFR-inhibitory potential”. Also, in data set [2], the “cathodic peak potential (Ec) vs NHE” value is listed as 4 mV. For the same compound, the “reduction / release of free ligand L by GSH” value in data set [3] is reported as “practically no reduction process”.

On to `CC(=O)[CH-]C(C)=O.CC(=O)[CH-]C(C)=O.CNCCNc1ccc2ncnc(Nc3cccc(Br)c3)c2c1.[Cl-].[Co+3]` [Co(acac)2MeL^+, Bis(2,4-pentanedionato) N^4-(3-Bromophenyl)-N^6-[2-(methylamino)ethyl]quinazoline-4,6-diamine Cobalt(III) Chloride], for which the IC50 came out at 11.9 ± 3.5 µM with A431 cancer cells (setting [7]), 12.5 ± 3.1 µM in the data set with A431 cancer cells (setting [8]), 13.5 ± 3.2 µM in the data set on A431 cancer cells (setting [9]) and 15.1 ± 1.6 µM with A431 cancer cells (setting [10]). Moreover, the “cobalt complex less active than the respective free ligand” value with A431 cancer cells (normoxia) is reported as about 2 fold. The “cathodic peak potential (Ec) vs NHE” value in data set [2] was determined as 120 mV. The “intact compound after serum incubation” value in “Serum stability, HPLC-MS” came to 50%.

Turning to `NCCNc1ccc2ncnc(Nc3cccc(Br)c3)c2c1` [L, N^6-(2-Aminoethyl)-N^4-(3-bromophenyl)quinazoline-4,6-diamine], the IC50 with A431 cancer cells (Homo sapiens, A-431, 0.1% O2, read-out: IC50 hypoxia with 0.1% O2) came out at 13.7 ± 2.9 µM; in the data set on A431 cancer cells (Homo sapiens, A-431, 1% O2, read-out: IC50 hypoxia with 1% O2), 12.7 ± 2 µM; in the data set on A431 cancer cells (Homo sapiens, A-431, 5% O2, read-out: IC50 hypoxia with 5% O2), 12.8 ± 0.9 µM; in the data set with A431 cancer cells (Homo sapiens, A-431, 21% O2, read-out: IC50 normoxia), 12 ± 1.3 µM; at EGFR (ErbB1) it was 0.00029 µM. In data set [4], the “log D7.40” value was 1.86 ± 0.03[29]. Besides, the “EGFR-inhibitory potential (pEGFR, pERK 1/2)” value in [5] is “potent EGFR inhibition”. Moreover, the pKa1 in [6] is under 1.0. In data set [6], the pKa2 was 9.21.
